Results on two compounds are retold here after patent publication US10799590B2, “Compositions containing a bitter tastant and at least one sophorolipid, and methods of reducing bitter taste attributed to a bitter tastant in an edible composition” (The United States of America, as Represented by the …, priority 2015, dated 2020).

Experiment [1] concerns cultured human fungiform taste papillae cells (HBO cells). The experiment is described as follows: Calcium imaging of cultured human fungiform taste papillae (HBO) cells: response frequency, estimation of sweet potency. The experiment is classed as cell-based. An excerpt: In vitro cell-based assay of sweet property. Establishment and maintenance of cultures of human fungiform taste papillae cells (HBO cells): We previously established the current proprietary protocol (Ozdener, H., et al., Chem. Senses, 31(3): 279-90 (2006); Ozdener, M. H., et al., Chem. Senses, 36(7): 601-12 (2011); Ozdener, H., et al., Isolation and culture of human fungiform taste papillae cells, J. Vis. Exp., 2012 May 17;(63):e3730) which allowed us to culture human fungiform taste papillae cells retaining their physiological and molecular characteristics for more than a year. […] The human fungiform taste papillae cells were cultured according to protocols that we have published (Ozdener et al. 2006, Ozdener et al. 2011). Human fungiform taste papillae were removed and immediately placed into an isolation solution followed by enzymatic digestion. Digested fungiform papillae were then gently minced with a surgical razor and seeded on collagen type-1 coated coverslips and incubated at 36° C. in a humidified environment containing 5% CO2. The fungiform taste papillae cells were cultured in Iscove's Modified Dulbecco's medium containing 10% fetal bovine serum, 1:5 ratio of MCDB (Molecular, Cellular, and Developmental Biology) 153 medium, and a triple cocktail of antibiotics (100 U/mL/100 μg/mL, penicillin/streptomycin, and 0.5 μg/mL fungizone). Culture medium was replaced every 5-7 days by one-third of fresh culture medium. Human fungiform taste papillae cells have been maintained in culture for a period of more than 1 year without loss of viability and with retention of the molecular and biochemical properties of acutely isolated taste cells (Ozdener et al., 2011). Calcium imaging: Cultured taste cells grown for 3-4 days glass coverslips which were loaded for 30-60 min with the calcium sensitive dye fura-2 by incubating the cells in Ringer solution (145 mM NaCl, 5 mM KCl, 1 mM MgCl2, 1 mM CaCl2, 1 mM Na-pyruvate, 20 mM Hepes-Na and Cellobiose 15 mM, pH 7.2 with osmolarity adjusted to 300-310 by 5M NaCl) supplemented with […] (Molecular Probes Inc., Eugene, Oreg.) and 10 mg/ml Pluronic® F127 (Molecular Probes Inc.). Coverslips were then placed in a recording chamber and continuously bathed with Ringer solution superfusion. Stimuli were dissolved in Ringer and then pH and osmolarity readjusted if needed. Cells were exposed to sweet ([…]), bitter mixture (PTC (phenylthiocarbamide)) 2mM+Salicin 5 mM+Denatonium 2 mM), guaifenesin (GF, 3 mM) and acetaminophen (APAP, 3 mM), and various sophorolipids stimuli: sophorose, sophorolipid palmitic acid, sophorolipid stearic acid, sophorolipid oleic acid. […]

The subject of experiment [2] is chorda tympani nerve of wild-type B6 mice. The experiment is described as follows: Chorda tympani whole-nerve responses to lingual taste stimuli, wild-type B6 mice. Conditions: lingual application (FIG. 6B, 7). The experiment is classed as in vivo. The protocol: (§1) Mouse model for sweet property and bitter-masking assay. Recordings of chorda tympani (CT) whole-nerve responses: All protocols involving animals were approved by the Institutional Animal Care and Use Committees at the Monell Center prior to the experiments. The study was performed with mice from two strains: C57BL/6J inbred strain (B6; Jackson Laboratory, Bar Harbor, Me.) bearing the wild-type Tas1r3 allele was used as the control, and the C57BL/6J-Tas1r3^tm1Rjm “gene-knockout” strain (T1R3-KO) lacking the entire T1R3 coding region and devoid of T1R3 protein ([…]., et al., Science, 301: 850-853 (2003)). Afferent signals from taste cells are relayed to the brain via three major gustatory nerves: the chorda tympani, glossopharyngeal, and greater superficial petrosal. […] Neural responses resulting from chemical stimulations of the tongue were fed into an amplifier (Grass Instruments, West Warwick, R.I.) and monitored on an oscilloscope and an audio monitor. Whole-nerve responses were integrated with a time constant of 1.0 s and recorded using a computer for later analysis using a PowerLab system (PowerLab/sp4; AD Instruments, Colorado Springs, Colo.). […] To analyze nerve responses to each stimulus, the magnitudes of integrated responses at 5, 10, 15, 20, and 25 s after stimulus onset were measured and averaged. […]

The test system of experiment [3] is T1R3. The experiment is described as follows: Chorda tympani whole-nerve responses to lingual taste stimuli, T1R3-KO mice. The settings on record: lingual application (FIG. 6A, 7). The experiment is classed as in vivo. The protocol:
as §1

Each structure is given as a SMILES string.

Turning to `OC[C@H]1O[C@H](O[C@]2(CCl)O[C@H](CCl)[C@@H](O)[C@@H]2O)[C@H](O)[C@@H](O)[C@H]1Cl` [Sucralose, sucralose], the “%-responsive cells” value in experiment [1] (cultured human taste cells, concentration 5 mM) is 16.67%. Further, in experiment [1] (tested at 5 mM, sucralose 5 mM is the standard), the “Concentration adjusted response frequency” value was 16.67.

As for `OC[C@H]1O[C@@](CO)(O[C@H]2O[C@H](CO)[C@@H](O)[C@H](O)[C@H]2O)[C@@H](O)[C@@H]1O` [sucrose], the chorda tympani responses result is given as “present” in experiment [2] and “nearly absent” in experiment [3].
